Values quoted from earlier work in US20210361700A1 (priority 2020, published 2021).

Tested on: influenza
Conditions: older mice

Vitamin E
resistance to and pathogenesis of influenza: Increases resistance to and
